The text below walks through data of patent US9681664B2, “Macrocyclic picolinamides as fungicides” (Dow Agrosciences LLC, priority 2012, dated 2017).

Like-named read-outs stand apart in the source and are kept apart here.

The subject of assay [1] is Mycosphaerella graminicola; Anamorph: Septoria tritici. The assay can be described thus: Leaf blotch of wheat (SEPTTR) disease control on wheat seedlings. Particulars: for pest or weed control at 100 ppm / pest or weed control at 121.5 g/ha: Zymoseptoria tritici; for pest or weed control at 121.5 g/ha: low volume application, 121.5 g/H. It counts as in vivo. The procedure:
Technical grades of materials were dissolved in acetone, which were then mixed with nine volumes of water containing 110 ppm Triton X-100. The fungicide solutions were applied onto wheat seedlings using an automated booth sprayer to run-off. All sprayed plants were allowed to air dry prior to further handling. All fungicides were evaluated using the aforementioned method for their activity vs. all target diseases. Wheat leaf blotch and brown rust activity were also evaluated using track spray applications, in which case the fungicides were formulated as EC formulations, containing 0.1% Trycol 5941 in the spray solutions. Wheat plants (variety Yuma) were grown from seed in a greenhouse in 50% mineral soil/50% soil-less Metro mix until the first leaf was fully emerged, with 7-10 seedlings per pot. These plants were inoculated with an aqueous spore suspension of Septoria tritici either prior to or after fungicide treatments. After inoculation the plants were kept in 100% relative humidity (one day in a dark dew chamber followed by two to three days in a lighted dew chamber at 20° C.) to permit spores to germinate and infect the leaf. The plants were then transferred to a greenhouse set at 20° C. for disease to develop. When disease symptoms were fully expressed on the 1st leaves of untreated plants, infection levels were assessed on a scale of 0 to 100 percent disease severity. Percent disease control was calculated using the ratio of disease severity on treated plants relative to untreated plants.

For assay [2], the system named is Puccinia triticina; Synonym: Puccinia recondite f. sp. tritici. Briefly: Wheat brown rust (PUCCRT) disease control on wheat seedlings. Type of assay: in vivo. Conditions: for pest or weed control at 100 ppm / pest or weed control at 121.5 g/ha: Puccinia triticina; for pest or weed control at 121.5 g/ha: low volume application, 121.5 g/H. The procedure: Technical grades of materials were dissolved in acetone, which were then mixed with nine volumes of water containing 110 ppm Triton X-100. The fungicide solutions were applied onto wheat seedlings using an automated booth sprayer to run-off. All sprayed plants were allowed to air dry prior to further handling. All fungicides were evaluated using the aforementioned method for their activity vs. all target diseases. Wheat leaf blotch and brown rust activity were also evaluated using track spray applications, in which case the fungicides were formulated as EC formulations, containing 0.1% Trycol 5941 in the spray solutions. Wheat plants (variety Yuma) were grown from seed in a greenhouse in 50% mineral soil/50% soil-less Metro mix until the first leaf was fully emerged, with 7-10 seedlings per pot. These plants were inoculated with an aqueous spore suspension of Puccinia triticina either prior to or after fungicide treatments. After inoculation the plants were kept in a dark dew room at 22° C. with 100% relative humidity overnight to permit spores to germinate and infect the leaf. The plants were then transferred to a greenhouse set at 24° C. for disease to develop. Fungicide formulation, application and disease assessment followed the procedures as described in the Example A.

The mark [3] stands for this setting: 24 h, High volume application, 100 ppm, 1 Day Protectant, read-out: SEPTTR 1DP disease control.
Setting [4] is: 72 h, High volume application, 100 ppm, 3 Day Curative, read-out: SEPTTR 3DC disease control.
The mark [5] stands for this setting: 24 h, High volume application, 100 ppm, 1 Day Protectant, read-out: PUCCRT 1DP disease control.
Where [6] appears, read: 72 h, High volume application, 100 ppm, 3 Day Curative, read-out: PUCCRT 3DC disease control.
The mark [7] stands for this setting: High volume application, 100 ppm, 1 Day Protectant.
Setting [8] is: High volume application, 100 ppm, 3 Day Curative.
Where [9] appears, read: 24 h, Wheat Leaf Blotch, 1 Day Protectant, read-out: Disease Control SEPTTR 1 DP 121.5 g/H.
[10] abbreviates: 72 h, Wheat Leaf Blotch, 3 Day Curative, read-out: Disease Control SEPTTR 3 DC 121.5 g/H.
Where [11] appears, read: 24 h, Wheat Brown Rust, 1 Day Protectant, read-out: Disease Control PUCCRT 1 DP 121.5 g/H.
Where [12] appears, read: 72 h, Wheat Brown Rust, 3 Day Curative, read-out: Disease Control PUCCRT 3 DC 121.5 g/H.

In the case of `COc1ccnc(C(=O)N[C@H]2CCC[C@H](OCCCC(F)(F)F)[C@@H](Oc3ccccc3)[C@H](C)OC2=O)c1OCOC(C)=O` [F135], the pest or weed control at 100 ppm in assay [1] (setting [3]), in assay [1] (setting [4]), in assay [2] (setting [5]) and in assay [2] (setting [6]) was 80 to 100% in each case.

`COc1ccnc(C(=O)N[C@H]2CCC[C@H](OCC(C)C)[C@@H](Oc3ccc(C)cc3)[C@H](C)OC2=O)c1OCOC(=O)C(C)C` [F101]: the pest or weed control at 100 ppm in assay [1] (setting [3]), in assay [1] (setting [4]), in assay [2] (setting [5]) and in assay [2] (setting [6]) was 80 to 100% throughout.

In the case of `COc1ccnc(C(=O)N[C@H]2CCC[C@H](OCC(C)C)[C@@H](Oc3ccc(F)cc3)[C@H](C)OC2=O)c1OCOC(C)=O` [F61], the pest or weed control at 100 ppm in assay [1] (setting [3]), in assay [1] (setting [4]), in assay [2] (setting [5]) and in assay [2] (setting [6]) was 80 to 100% in each case.

As for `COc1ccnc(C(=O)N[C@H]2CCC[C@H](OCC(C)C)[C@@H](OC3CCCC3)[C@H](C)OC2=O)c1O` [F33], the pest or weed control at 100 ppm in assay [1] (setting [3]) is 0 to 80%; in assay [1] (setting [4]) it was 80 to 100%; in assay [2] (setting [5]) it was 80 to 100%; in assay [2] (setting [6]), 80 to 100%.

With “[4-methoxy-2-[[(3S,7S,8S,9S)-9-methyl-7,8-bis(2-methylallyloxy)-2-oxo-oxonan-3-yl]carbamoyl]-3-pyridyl]oxymethyl-2-methylpropanoate [F17]”, the “SEPTTR 1DP disease control” value in assay [1] (setting [7]) is “A (80-100)”. The “SEPTTR 3DC disease control” value in assay [1] (setting [8]) was “A (80-100)”. Also, in assay [2] (setting [7]), the “PUCCRT 1DP disease control” value is given as “A (80-100)”. The “PUCCRT 3DC disease control” value in assay [2] (setting [8]) is “A (80-100)”.

For the compound `COCCC(=O)Oc1c(OC)ccnc1C(=O)N[C@H]1CCC[C@H](OC2CCCC2)[C@@H](OCC(C)C)[C@H](C)OC1=O` [F146], the pest or weed control at 100 ppm in assay [1] (setting [3]), in assay [1] (setting [4]), in assay [2] (setting [5]) and in assay [2] (setting [6]) was 80 to 100% each time.

As for `CCCO[C@H]1CCC[C@H](NC(=O)c2nccc(OC)c2OC(C)=O)C(=O)O[C@@H](C)[C@@H]1Oc1cccc(Cl)c1` [F286], the pest or weed control at 100 ppm in assay [1] (24 h, Wheat Leaf Blotch, 1 Day Protectant, high volume application, 100 ppm, read-out: Disease Control SEPTTR 1 DP 100 ppm) was 80 to 100%; in assay [1] (72 h, Wheat Leaf Blotch, 3 Day Curative, high volume application, 100 ppm, read-out: Disease Control SEPTTR 3 DC 100 ppm), 80 to 100%; in assay [2] (24 h, Wheat Brown Rust, 1 Day Protectant, high volume application, 100 ppm, read-out: Disease Control PUCCRT 1 DP 100 ppm), 80 to 100%; in assay [2] (72 h, Wheat Brown Rust, 3 Day Curative, high volume application, 100 ppm, read-out: Disease Control PUCCRT 3 DC 100 ppm) it was 80 to 100%. Further, the pest or weed control at 121.5 g/ha is 80 to 100% in assay [1] (setting [9]), 80 to 100% in assay [1] (setting [10]), 80 to 100% in assay [2] (setting [11]) and 0 to 80% in assay [2] (setting [12]).

Consider `C=C(C)CO[C@H]1CCC[C@H](NC(=O)c2nccc(OC)c2OC(C)=O)C(=O)O[C@@H](C)[C@@H]1OC` [F256], for which the pest or weed control at 121.5 g/ha in assay [1] (setting [9]) was under 0%; in assay [1] (setting [10]) it was 0 to 80%; in assay [2] (setting [11]) it was 0 to 80%; in assay [2] (setting [12]) it was 80 to 100%.

In the case of `COc1ccnc(C(=O)N[C@H]2CCC[C@H](OC(=O)C3CCCC3)[C@@H](OC(=O)C3CCCC3)[C@H](C)OC2=O)c1O` [F84], the pest or weed control at 100 ppm in assay [1] (setting [3]), in assay [1] (setting [4]), in assay [2] (setting [5]) and in assay [2] (setting [6]) was 0 to 80% each time.

Turning to `COc1ccc(O[C@H]2CCC[C@H](NC(=O)c3nccc(OC)c3O)C(=O)O[C@@H](C)[C@@H]2Oc2ccc(F)cc2)cc1` [F54], the pest or weed control at 100 ppm in assay [1] (setting [3]) was in the range of 80 to 100%; in assay [1] (setting [4]) it was 0 to 80%; in assay [2] (setting [5]), 80 to 100%; in assay [2] (setting [6]), 80 to 100%.

Take `C=C(C)CO[C@H]1CCC[C@H](NC(=O)c2nccc(OC)c2O)C(=O)O[C@@H](C)[C@@H]1OCC(C)C` [F220]: the pest or weed control at 100 ppm in assay [1] (setting [3]), in assay [1] (setting [4]), in assay [2] (setting [5]) and in assay [2] (setting [6]) was 80 to 100% in each case.
